Data as given in the COVID Moonshot data (paper PMC11187573), “Identification of SARS-CoV-2 Mpro inhibitors through deep reinforcement learning for de novo drug design and computational chemistry approaches” (RSC Medicinal Chemistry, 2024).

What was measured:
[1] = target: SARS-CoV-2 Main Protease (SARS-CoV-2) (UniProt P0DTD1)
[2] = target: SARS-CoV-2 Main Protease (SARS-CoV-2) (UniProt P0DTD1); remark: listed apart in the source
Experimental: Compounds were seeded into assay-ready plates (Greiner 384 low volume, cat 784900) using an Echo 555 acoustic dispenser, and DMSO was back-filled for a uniform concentration in assay plates (DMSO concentration maximum 1%) Screening assays were performed in duplicate at 20µM and 50µM. […] Dose response assays were performed in 12 point dilutions of 2-fold, typically beginning at 100µM. […] Reagents for Mpro assay were dispensed into the assay plate in 10µl volumes for a final volume of 20µL.
Mpro was pre-incubated for 15 minutes at room temperature with compound before addition of substrate and a further 30 minute incubation. Protease reaction was measured in a BMG Pherastar FS with a 480/520 ex/em filter set. Raw data was mapped and normalized to high (Protease with DMSO) and low (No Protease) controls using Genedata Screener software.

Row | SMILES | inhibition ([1]; 20.0 µM) [%] | inhibition ([1]; 50.0 µM) [%] | inhibition ([2]; 50.0 µM) [%] | relative solubility at 20 uM | relative solubility at 100 uM | inhibition ([2]; 20.0 µM) [%] | IC50 [2] [µM] | IC50 [1] [µM]
1 | COCC1CCN(c2ccc(S(N)(=O)=O)cc2)CC1 | 22.3 | 44 | -23.1 | 0.99 | 1 | – | – | –
2 | C=CC(=O)N(c1ccc(C2(C)CC2)cc1)C(C(=O)Nc1c(C)cccc1CC)c1cccnc1 (stereo unspecified) | 0 | 20.4 | 20.9 | 0.8 | 0.68 | – | – | –
3 | Cc1ccncc1NC(=O)c1cccc(NC(=O)Nc2cccnc2)c1 | 2.38 | 1.27 | -23.3 | 1 | 1 | – | – | –
4 | Cn1cnnc1NC(=O)Cc1cccc(Cl)c1F | – | -13.1 | -1.13 | 0.98 | 0.99 | 5.1 | – | –
5 | O=S(=O)(CCc1ccccc1)Nc1cccnc1 | – | 17.2 | -32.5 | 0.98 | 0.99 | -0.803 | – | –
6 | C=CC(=O)N(c1ccc(C(C)(C)CC)cc1)C(C(=O)Nc1ccccc1Br)c1cccnc1 (stereo unspecified) | 0 | 8.03 | -11.5 | 1 | 1 | – | – | –
7 | O=S(=O)(Cc1ccc(F)cc1)Nc1cccnc1 | – | -5.13 | -13.8 | 1 | 1 | 6.67 | – | –
8 | O=C(Cc1ccccc1)Nc1cccc(OC2CC(=O)N2)c1 (stereo unspecified) | – | 0 | -0.808 | 1 | 1 | -2.28 | – | –
9 | CCC(C)CC(=O)N1CCCC(NC(=O)Cn2c(C)cc(C)nc2=O)CC1 (stereo unspecified) | – | -29.6 | -19.4 | 0.98 | 1 | -4.95 | – | –
10 | Cc1ccc(Oc2cccc(NC(=O)NCc3cnnn3C)c2)c(C)c1 | 0 | – | -12.8 | 0.96 | 0.75 | -10.7 | – | –
11 | Cc1ccncc1NC(=O)C12CC(CO1)C2 | – | 0 | 12.2 | 1 | 1 | -0.804 | – | –
12 | COc1cc(NC(=O)C(=O)Nc2cc(OC)c(OC)c(OC)c2)cc(OC)c1OC | 0.456 | – | 4.05 | 0.99 | 0.92 | -9.4 | – | –
13 | CC(C)N(C)CC1CCN(c2ccc(S(N)(=O)=O)cc2)CC1 | 0 | 0 | -17.8 | 1 | 0.99 | – | – | –
14 | C=CC(=O)N(c1ccc(C(C)(C)C)cc1)C(C(=O)NC(C)(C)C)c1cccnc1C (stereo unspecified) | 0 | 0 | 2.24 | 0.99 | 0.99 | -1.34 | – | –
15 | CC(C)(C)NC(=O)C(c1cccnc1)N(C(=O)c1ccco1)c1ccc(C(C)(C)C)cc1 (stereo unspecified) | – | 23.9 | 86.6 | 1.01 | 0.99 | 74 | – | –
16 | O=C(Cn1c(=O)[nH]c2ccccc21)Nc1cccc(Cl)c1 | – | 0 | -9.78 | 1 | 0.64 | -4.28 | – | –
17 | COc1ccccc1OCC(C)NC(=O)c1cc(=O)[nH]c2cc(F)ccc12 (stereo unspecified) | – | 22 | 78.4 | 1 | 0.99 | 46.9 | 33 | –
18 | Cc1ccncc1NC(=O)C(C)c1cccc(Cl)c1 (stereo unspecified) | 20.4 | – | 78.7 | 1 | 1 | 58 | – | 13
19 | COc1ncccc1N(C)C(=O)C1CCOc2ccc(Cl)cc21 (stereo unspecified) | – | 0 | 2.54 | 1 | 0.98 | -2.61 | – | –

Row | SMILES | inhibition ([1]; 20.0 µM) [%] | inhibition ([1]; 50.0 µM) [%] | inhibition ([2]; 50.0 µM) [%] | relative solubility at 20 uM | relative solubility at 100 uM | inhibition ([2]; 20.0 µM) [%] | IC50 [2] [µM] | IC50 [1] [µM]
20 | CC(=O)N[C@@H](Cc1ccc(O)cc1)C(=O)NC(CN1CCN(C(=O)CCl)CC1)c1ccccc1 (stereo in doubt) | – | 31.1 | 41.2 | 0.99 | 1 | 21.3 | – | –
21 | CCC(=O)O[C@@H](OP(=O)(CCCCc1ccccc1)CC(=O)N1C[C@H](C2CCCCC2)C[C@H]1C(=O)O)C(C)C (stereo in doubt) | 3.17 | – | -0.253 | 1 | 0.92 | 4.91 | – | –
22 | O=C(CC1(c2ccccc2)CCCC1)Nc1cccnc1 | 0 | 13.9 | 3.98 | 1 | 1 | – | – | –
23 | O=C(NCc1coc2ccccc12)C1CCc2nnc(-c3ccc(O)cc3)n2C1 (stereo unspecified) | – | 55.3 | 2.5 | 0.89 | 0.94 | -9.94 | – | –
24 | Cc1coc(NC(=O)Nc2cccnc2)n1 | 2.76 | 8.52 | 8.86 | 1 | 1 | 2.91 | – | –
25 | COc1ccncc1NC(=O)C(C)(C)c1cc(F)cc(C#N)c1 | – | 40.6 | 30.8 | 0.99 | 1 | 20 | – | –
26 | COc1ccccc1OCCN(C)C(=O)c1cc(=O)[nH]c2cc(F)ccc12 | – | 0 | 7.57 | 1.01 | 1 | -3.47 | – | –
27 | C=CC(=O)N(c1ccc(C(C)(C)C)cc1)C(C(=O)NC(C)C)c1cccnc1 (stereo unspecified) | 0 | 0 | 0.416 | 1 | 1 | -1.73 | – | –
28 | C=CC(=O)NCC(=O)N(CCN1CCOCC1)Cc1ccccc1Cl | 0 | 0 | -19.7 | 1 | 1 | -18.3 | – | –
29 | O=C(CCl)Nc1nc2c(S(=O)(=O)NCCc3ccccc3)cccc2s1 | – | 80.3 | 74.5 | 0.89 | 0.66 | 58 | 13.9 | 8.55
30 | CCCC(C(=O)Nc1cnccc1C)c1cccc(Cl)c1 (stereo unspecified) | – | 78.3 | 90.6 | 1 | 0.99 | 77.9 | – | 5.48
31 | CN1C(=O)/C(=N\NC(=O)c2ccc3c(c2)OCO3)c2ccccc21 | – | -12.8 | -60.6 | 0.97 | 0.75 | -16.9 | – | –
32 | Cc1cccc(NC(=O)C(C#N)C(=O)CC(C)C)c1 (stereo unspecified) | 0 | 0 | -0.258 | 1 | 1 | – | – | –
33 | O=C(Nc1cnccc1Cl)c1cc(Cl)ccc1O | 15.5 | 65.9 | 75.2 | 1 | 0.98 | 66.8 | – | –
34 | CS(=O)(=O)Nc1cccc(C(=O)OCC(=O)Nc2cccc(N3CCCC3=O)c2)c1 | – | 0 | 3.7 | 0.98 | 0.99 | 5.16 | – | –
35 | Cc1nnn(NC(=O)Cc2cccc(Cl)c2)c1C | – | 28.7 | 70.4 | 1 | 1.01 | 39.6 | – | 73.4
36 | CCOc1ccccc1OC1CCN(C(=O)c2cc(=O)[nH]c3ccc(F)cc23)C1 (stereo unspecified) | – | 0 | 18.2 | 1 | 0.99 | 6.76 | – | –
37 | C=CC(=O)NCc1ccc(C(C)NC(=O)OC(C)(C)C)cc1 (stereo unspecified) | 0 | 0 | 6.84 | 1 | 1.01 | – | – | –
